Activity calls are given as the source filed them. Some results are limits rather than exact numbers.

Assay [1] has as its target T1, Corticotropin-releasing factor receptor 2/Corticotropin-releasing factor-binding protein (Homo sapiens, UniProt P24387+Q13324).
T1 sequence (Q13324 whole entry): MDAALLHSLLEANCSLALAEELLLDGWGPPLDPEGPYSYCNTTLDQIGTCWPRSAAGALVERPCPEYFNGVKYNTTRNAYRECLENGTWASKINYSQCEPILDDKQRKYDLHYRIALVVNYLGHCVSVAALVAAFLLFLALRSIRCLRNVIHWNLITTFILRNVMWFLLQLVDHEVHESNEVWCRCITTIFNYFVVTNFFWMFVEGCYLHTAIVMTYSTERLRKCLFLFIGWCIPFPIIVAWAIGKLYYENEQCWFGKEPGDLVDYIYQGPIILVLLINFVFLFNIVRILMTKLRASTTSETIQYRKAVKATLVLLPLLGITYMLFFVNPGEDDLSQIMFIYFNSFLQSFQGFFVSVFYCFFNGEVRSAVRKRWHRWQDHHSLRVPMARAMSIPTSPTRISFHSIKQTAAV
T1 sequence (P24387 whole entry): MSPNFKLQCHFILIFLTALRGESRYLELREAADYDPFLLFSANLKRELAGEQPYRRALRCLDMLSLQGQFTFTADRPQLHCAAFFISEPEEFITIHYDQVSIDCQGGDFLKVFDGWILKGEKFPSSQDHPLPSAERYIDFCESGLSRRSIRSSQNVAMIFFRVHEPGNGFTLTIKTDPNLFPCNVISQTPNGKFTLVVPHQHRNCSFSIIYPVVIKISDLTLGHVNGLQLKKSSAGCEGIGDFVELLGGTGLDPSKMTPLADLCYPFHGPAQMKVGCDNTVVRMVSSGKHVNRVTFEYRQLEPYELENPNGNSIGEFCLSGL
The assay is described as follows: activators of CRF receptor 2 with binding protein – uHTS hits, confirmation (AID 602473). As to conditions: read-out: EC50_Mean. Type of assay: functional.

In a further assay the target is Troponin, cardiac muscle (Homo sapiens, UniProt P19429+P45379+P63316). In words: Fluorescence-based biochemical high throughput dose response assay for activators of the calcium sensitivity of cardiac Regulated Thin Filaments (RTF). [Related pubchem assays (depositor defined):AID493008, AID493018, AID504382, AID504383]. Type of assay: protein-complex assay.
The target in assay [2] is T2, Type-1 angiotensin II receptor (Homo sapiens, UniProt P30556).
T2 sequence (P30556 whole entry): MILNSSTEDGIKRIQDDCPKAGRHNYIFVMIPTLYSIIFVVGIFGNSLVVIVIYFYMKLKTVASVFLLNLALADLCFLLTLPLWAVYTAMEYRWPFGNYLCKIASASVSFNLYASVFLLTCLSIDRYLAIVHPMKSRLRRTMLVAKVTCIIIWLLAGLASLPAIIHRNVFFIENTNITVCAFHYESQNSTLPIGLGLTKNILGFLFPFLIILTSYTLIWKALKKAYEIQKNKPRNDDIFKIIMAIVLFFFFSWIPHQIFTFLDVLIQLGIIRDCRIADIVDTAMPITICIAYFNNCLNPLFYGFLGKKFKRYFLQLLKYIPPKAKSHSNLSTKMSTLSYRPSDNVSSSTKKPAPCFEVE
In words: AT1 receptor agonists, dose response, selectivity assay for APJ receptor agonist project, cell-based, uHTS hits (AID 488865).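 Also: beta-arrestin recruitment to AT1 measured by enzyme fragment complementation luminescence.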 Type of assay: functional.

Assay [3] addresses Intestinal-type alkaline phosphatase (Homo sapiens, UniProt P09923). In words: human intestinal alkaline phosphatase activators, dose response, biochemical, luminescence, uHTS hits (AID 463120). Type of assay: functional.
Assay [4] has as its target T3, Tyrosine-protein phosphatase non-receptor type 7 (Homo sapiens, UniProt P35236).
T3 sequence (P35236 whole entry): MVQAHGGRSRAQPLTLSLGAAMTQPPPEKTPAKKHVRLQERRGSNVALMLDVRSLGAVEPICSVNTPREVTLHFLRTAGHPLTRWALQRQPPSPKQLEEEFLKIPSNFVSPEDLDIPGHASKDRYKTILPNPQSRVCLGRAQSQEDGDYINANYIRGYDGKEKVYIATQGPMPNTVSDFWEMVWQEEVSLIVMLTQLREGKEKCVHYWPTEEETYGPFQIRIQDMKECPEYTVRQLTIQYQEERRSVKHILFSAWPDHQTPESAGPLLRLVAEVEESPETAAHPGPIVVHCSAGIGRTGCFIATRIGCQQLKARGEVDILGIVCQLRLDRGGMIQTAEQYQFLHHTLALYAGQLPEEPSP
The assay is described as follows: SAR analysis of chemical inhibitors of HePTP using a Fluorescent assay - Set 2. [Related pubchem assays (depositor defined):AID1059, AID1077, AID1661, AID2085, AID521]. Type of assay: functional.

The target of assay [5] is Dual specificity protein phosphatase 3 (Homo sapiens, UniProt P51452). In words: SAR VHR1 Fluorescent Assay for In Vitro dose response studies Set 2. [Related pubchem assays (depositor defined):AID1654, AID1661, AID1878]. Type of assay: functional.
Sequence of Dual specificity protein phosphatase 3 (P51452 whole entry): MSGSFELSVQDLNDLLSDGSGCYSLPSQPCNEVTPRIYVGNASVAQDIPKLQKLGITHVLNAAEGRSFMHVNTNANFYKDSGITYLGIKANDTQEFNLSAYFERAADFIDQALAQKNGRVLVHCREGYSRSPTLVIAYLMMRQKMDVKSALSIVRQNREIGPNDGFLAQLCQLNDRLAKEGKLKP
The next assay addresses Large T antigen (Simian virus 40, UniProt P03070). In words: A confirmatory biochemical assay using the ADP-Hunter methodology, purified TAg, and ATP to quantify activity of synthesized compounds that inhibit the ATPase activity of Tag (3). [Related pubchem assays (depositor defined):AID1903, AID1909, AID2102, AID2501, AID2615, AID2775, AID435001, AID449729]. The arrangement: species or system Betapolyomavirus macacae.

Assay [6] can be described thus: SV40 cytopathic effect inhibition and cytotoxicity, confirmation, BSC cells, set 3 (AID 485276). Type of assay: functional, cell-based.
Assay [7] in a line: NIH-3T3 fibroblast cytotoxicity, dose response, cytotoxicity control, cell-based, fluorescence, Alamar Blue, secondary assay (AID 2327).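 Also: NIH-3T3 mouse fibroblasts cultured with fluconazole at 8 µg/mL.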 Type of assay: functional.
The target of assay [8] is T4, Apoptotic protease-activating factor 1 (Homo sapiens, UniProt O14727).
T4 sequence (O14727 whole entry): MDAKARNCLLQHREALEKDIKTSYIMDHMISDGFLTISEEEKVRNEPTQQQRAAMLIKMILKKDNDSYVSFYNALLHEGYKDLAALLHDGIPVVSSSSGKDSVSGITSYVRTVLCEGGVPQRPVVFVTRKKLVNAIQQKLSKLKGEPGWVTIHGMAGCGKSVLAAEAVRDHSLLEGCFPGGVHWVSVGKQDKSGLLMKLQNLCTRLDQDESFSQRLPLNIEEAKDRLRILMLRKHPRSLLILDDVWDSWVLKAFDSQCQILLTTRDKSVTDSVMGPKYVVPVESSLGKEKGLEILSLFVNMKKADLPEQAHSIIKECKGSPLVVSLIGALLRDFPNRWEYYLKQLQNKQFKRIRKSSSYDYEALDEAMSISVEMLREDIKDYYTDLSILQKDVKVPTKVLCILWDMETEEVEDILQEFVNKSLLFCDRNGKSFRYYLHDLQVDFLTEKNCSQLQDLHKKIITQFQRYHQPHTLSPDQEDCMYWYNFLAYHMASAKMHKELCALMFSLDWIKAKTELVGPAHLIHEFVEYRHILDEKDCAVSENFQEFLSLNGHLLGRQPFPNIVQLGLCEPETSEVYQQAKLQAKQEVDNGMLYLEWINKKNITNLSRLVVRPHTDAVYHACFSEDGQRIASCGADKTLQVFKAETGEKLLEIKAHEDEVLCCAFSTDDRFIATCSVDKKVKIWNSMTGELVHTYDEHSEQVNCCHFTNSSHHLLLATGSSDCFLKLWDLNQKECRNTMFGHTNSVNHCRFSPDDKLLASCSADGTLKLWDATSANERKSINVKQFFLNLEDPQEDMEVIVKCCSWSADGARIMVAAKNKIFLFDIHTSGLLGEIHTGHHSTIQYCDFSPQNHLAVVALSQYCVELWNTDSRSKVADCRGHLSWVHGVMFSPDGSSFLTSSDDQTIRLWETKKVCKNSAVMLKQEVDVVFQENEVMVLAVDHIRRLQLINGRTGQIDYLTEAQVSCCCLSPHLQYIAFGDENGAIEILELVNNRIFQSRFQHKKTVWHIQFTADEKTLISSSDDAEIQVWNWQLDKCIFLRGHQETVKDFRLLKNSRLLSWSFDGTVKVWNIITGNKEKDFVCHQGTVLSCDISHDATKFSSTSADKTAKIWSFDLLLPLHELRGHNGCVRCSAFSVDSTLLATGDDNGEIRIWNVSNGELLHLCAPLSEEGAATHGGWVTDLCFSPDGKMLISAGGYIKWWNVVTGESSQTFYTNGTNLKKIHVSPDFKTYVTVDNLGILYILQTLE
Type of assay: functional.

Assay [9] is described as follows: inhibitors of SNCA 5'UTR-driven reporter translation, confirmation, H4 neuroglioma cells, luminescence (AID 1988). Type of assay: functional, cell-based.
Assay [10] is described as follows: C. albicans growth with fluconazole, confirmation, fluorescence, retest (AID 2467). Type of assay: functional, cell-based.
Assay [11] relates to BJ. In words: cytotoxicity toward Ras-transformed BJeLR fibroblasts, dose response, cell-based, alamar blue fluorescence, cherrypicked samples (AID 2631).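 Also: confirmatory dose-response assay in RAS-dependent BJ fibroblasts engineered with TERT, LT and ST, with cytotoxicity read by fluorescence.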 As to conditions: Homo sapiens. Type of assay: functional.
The subject of assay [12] is BJ. The assay is described as follows: cells. Type of assay: functional, cell-based. The note with it: Homo sapiens.
Assay [13] can be described thus: cytotoxicity in HEK-293T cells, dose response, cytotoxicity control for TCR NF-kB inhibitor project, luminescence, T-cell screen hits (AID 489026).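 Also: cells exposed to compound about 14 hours before the viability readout.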 Type of assay: functional, cell-based.
Another assay has as its target T5, Hexokinase HKDC1 (Homo sapiens, UniProt Q2TB90).
T5 sequence (Q2TB90 whole entry): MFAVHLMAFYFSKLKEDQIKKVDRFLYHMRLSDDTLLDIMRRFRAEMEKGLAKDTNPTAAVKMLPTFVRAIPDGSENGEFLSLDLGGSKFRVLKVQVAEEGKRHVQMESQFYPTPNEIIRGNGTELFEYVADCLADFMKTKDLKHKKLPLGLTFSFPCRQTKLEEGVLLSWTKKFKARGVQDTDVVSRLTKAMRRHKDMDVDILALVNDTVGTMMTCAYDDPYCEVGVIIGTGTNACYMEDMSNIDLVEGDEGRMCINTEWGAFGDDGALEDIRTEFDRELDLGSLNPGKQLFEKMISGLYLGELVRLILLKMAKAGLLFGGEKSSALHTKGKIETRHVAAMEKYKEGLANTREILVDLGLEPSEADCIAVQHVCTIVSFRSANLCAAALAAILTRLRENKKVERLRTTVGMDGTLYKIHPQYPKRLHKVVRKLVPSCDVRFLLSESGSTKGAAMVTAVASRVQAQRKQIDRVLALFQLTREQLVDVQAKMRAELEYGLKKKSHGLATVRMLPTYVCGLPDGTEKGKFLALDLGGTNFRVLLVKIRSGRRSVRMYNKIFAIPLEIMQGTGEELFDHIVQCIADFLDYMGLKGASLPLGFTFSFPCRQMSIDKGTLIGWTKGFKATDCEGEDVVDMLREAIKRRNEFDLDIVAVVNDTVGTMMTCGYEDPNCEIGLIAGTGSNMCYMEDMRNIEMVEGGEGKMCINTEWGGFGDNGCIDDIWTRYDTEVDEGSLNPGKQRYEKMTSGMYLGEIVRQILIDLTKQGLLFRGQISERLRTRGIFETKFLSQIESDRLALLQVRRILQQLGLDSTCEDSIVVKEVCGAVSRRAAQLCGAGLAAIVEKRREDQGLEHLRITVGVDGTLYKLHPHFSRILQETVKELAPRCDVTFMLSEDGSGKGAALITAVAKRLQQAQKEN
In words: HKDC1 hexokinase activators, dose response, biochemical, W721R variant (AID 504730). Type of assay: functional.

A further assay concerns the target Hexokinase-1 (Homo sapiens, UniProt P19367). In words: hexokinase 1 activators, dose response, selectivity assay for HKDC1 activator project, biochemical (AID 504762). Type of assay: functional.
A further assay deals with HEK293. The assay is described as follows: inhibitors of LMP1-driven NF-kB reporter, dose response, cell-based, HEK293, luciferase, cherry-pick (AID 588343). Type of assay: functional. The note with it: Homo sapiens.
Assay [14] in a line: cytotoxicity toward DRD oncogenic fibroblasts, dose response, cell-based, non-viral oncogenic, luminescence (AID 1934). The note with it: Homo sapiens. Type of assay: functional.
The nature of assay [15]: Luminescence Cell-Based Dose Response HTS to Identify Inhibitors of 5'UTR Stem-Loop Driven Prion Protein mRNA Translation in H4 Neuroglioblastoma Cells. [Related pubchem assays: 1827 (Project Summary), 1813 (Primary HTS)]. Type of assay: functional.
Assay [16] concerns BJ. The assay is described as follows: cytotoxicity toward BJ-TERT fibroblasts, dose response, cell-based, RAS-independent, luminescence (AID 1933). As to conditions: Homo sapiens. Type of assay: functional.
The test system of another assay is INS1. In words: beta cell apoptosis inhibitors, cytokine rescue, dose response, luminescence, retest (AID 449756).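 Also: cell death triggered by IL-1 beta plus TNF-alpha plus IFN-gamma mixture; protective hits raise ATP signal compared with cytokine alone wells.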 Type of assay: functional, cell-based. The note with it: Rattus norvegicus.
A short description of assay [17]: inhibitors of firefly luciferase expression or activity, dose response, H4 neuroglioma cells, luminescence (AID 1990). Type of assay: functional, cell-based.

Sequence of Hexokinase-1 (P19367 whole entry): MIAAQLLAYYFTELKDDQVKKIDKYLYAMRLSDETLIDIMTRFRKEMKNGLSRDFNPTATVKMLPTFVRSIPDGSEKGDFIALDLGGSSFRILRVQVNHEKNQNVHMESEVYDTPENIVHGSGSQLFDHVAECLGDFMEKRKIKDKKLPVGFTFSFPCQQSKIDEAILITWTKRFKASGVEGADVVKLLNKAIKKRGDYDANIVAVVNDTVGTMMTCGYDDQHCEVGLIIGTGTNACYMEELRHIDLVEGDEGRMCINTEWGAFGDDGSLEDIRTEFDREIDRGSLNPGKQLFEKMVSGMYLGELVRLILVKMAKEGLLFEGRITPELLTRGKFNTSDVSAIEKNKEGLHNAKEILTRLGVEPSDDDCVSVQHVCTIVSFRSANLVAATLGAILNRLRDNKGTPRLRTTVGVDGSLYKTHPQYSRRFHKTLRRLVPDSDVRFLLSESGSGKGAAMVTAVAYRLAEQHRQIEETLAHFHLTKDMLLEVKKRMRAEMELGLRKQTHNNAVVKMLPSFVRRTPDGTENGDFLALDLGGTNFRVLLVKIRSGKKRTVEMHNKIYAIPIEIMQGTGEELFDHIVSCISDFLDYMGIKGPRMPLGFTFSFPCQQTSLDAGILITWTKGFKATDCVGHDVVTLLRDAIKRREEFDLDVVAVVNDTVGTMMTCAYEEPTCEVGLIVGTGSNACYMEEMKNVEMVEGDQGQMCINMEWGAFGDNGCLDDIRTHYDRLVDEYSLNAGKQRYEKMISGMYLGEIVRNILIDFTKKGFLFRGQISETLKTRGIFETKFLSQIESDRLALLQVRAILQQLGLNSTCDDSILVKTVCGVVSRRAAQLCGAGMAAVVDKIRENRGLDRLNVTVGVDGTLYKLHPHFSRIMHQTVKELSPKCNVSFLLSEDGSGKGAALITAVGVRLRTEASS
Sequence of Intestinal-type alkaline phosphatase (P09923 whole entry): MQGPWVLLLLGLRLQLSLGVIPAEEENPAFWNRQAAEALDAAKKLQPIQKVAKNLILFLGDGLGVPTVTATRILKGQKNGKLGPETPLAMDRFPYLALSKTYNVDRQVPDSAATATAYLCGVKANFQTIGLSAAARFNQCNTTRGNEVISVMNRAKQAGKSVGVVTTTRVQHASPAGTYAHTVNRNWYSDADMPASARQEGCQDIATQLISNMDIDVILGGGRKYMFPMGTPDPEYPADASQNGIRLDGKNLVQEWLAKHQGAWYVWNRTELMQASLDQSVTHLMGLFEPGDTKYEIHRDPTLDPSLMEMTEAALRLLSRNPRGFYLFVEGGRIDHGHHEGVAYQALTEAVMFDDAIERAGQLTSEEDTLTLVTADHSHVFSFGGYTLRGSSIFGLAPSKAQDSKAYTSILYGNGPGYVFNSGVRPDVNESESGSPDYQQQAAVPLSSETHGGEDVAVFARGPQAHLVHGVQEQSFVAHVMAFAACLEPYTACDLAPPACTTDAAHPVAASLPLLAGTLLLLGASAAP
Sequence of Large T antigen (P03070 whole entry): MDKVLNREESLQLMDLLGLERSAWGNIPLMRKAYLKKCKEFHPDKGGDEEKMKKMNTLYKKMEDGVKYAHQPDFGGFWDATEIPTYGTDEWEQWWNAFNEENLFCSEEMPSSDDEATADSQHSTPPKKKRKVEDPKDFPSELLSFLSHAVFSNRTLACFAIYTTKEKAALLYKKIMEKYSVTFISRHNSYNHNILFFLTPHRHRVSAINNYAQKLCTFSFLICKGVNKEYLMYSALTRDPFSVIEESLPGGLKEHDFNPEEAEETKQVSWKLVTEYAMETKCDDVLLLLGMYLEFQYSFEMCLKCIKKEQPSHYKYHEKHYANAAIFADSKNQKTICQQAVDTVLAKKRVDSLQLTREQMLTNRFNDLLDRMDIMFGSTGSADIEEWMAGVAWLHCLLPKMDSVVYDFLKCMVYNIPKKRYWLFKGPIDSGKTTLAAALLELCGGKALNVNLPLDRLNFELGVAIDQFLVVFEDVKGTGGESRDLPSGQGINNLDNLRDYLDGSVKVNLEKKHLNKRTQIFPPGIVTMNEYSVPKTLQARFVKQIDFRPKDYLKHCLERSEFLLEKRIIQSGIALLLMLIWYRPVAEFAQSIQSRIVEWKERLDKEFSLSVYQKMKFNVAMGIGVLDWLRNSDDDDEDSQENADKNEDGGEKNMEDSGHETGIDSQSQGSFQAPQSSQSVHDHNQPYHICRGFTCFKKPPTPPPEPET

In the case of `CCOC(=O)c1sc(-c2ccc(F)cc2)cc1NC(=O)Nc1ccccc1OC`, the EC50 in [1] was > 53 µM (inactive); on Troponin, cardiac muscle, > 71.4 µM (inactive).
As for `CCCCC1=CC2=CC(=O)C(C)(OC(=O)CC)C(=O)C2=CN1c1ccccc1` (stereo not drawn), in assay [2], the EC50 is > 100 µM (inactive).
Turning to `CCC1CCCCN1C1Sc2ccc(C(=O)OC)cc2NC1=O` (stereo not drawn), the EC50 in assay [3] was > 100 µM (inactive).
With `O=S(=O)(c1ccc(NC(=S)N2CCN(Cc3ccc4c(c3)OCO4)CC2)cc1)N1CCOCC1`, the IC50 in assay [4] is 79.6 µM (active); in assay [5], > 100 µM (inactive).
Take `CC(C)c1cc(C(C)(C)c2ccc(O)c(C(C)C)c2)ccc1O`: the IC50 at Large T antigen is 26.7 µM (active); in assay [6] it was 11.9 µM (active).
`Cc1[nH]n(-c2ccccc2)c(=O)c1/C=N/Nc1nncc(-c2ccccc2)n1`: the EC50 in assay [7] was 2.32 µM (active); in assay [9], 0.173 µM (active); in assay [10] it was 2.54 µM (active); in the assay on BJ [11] it was 0.471 µM (inconclusive); in the assay with BJ [12], 3.06 µM (active); on Hexokinase HKDC1, 6.69 µM (active). Besides, the EC50 at Hexokinase-1 was > 80 µM (inactive); in assay [14], 2.39 µM (active); in assay [15], 0.155 µM (active); in the assay on BJ [16], 2.76 µM (active); in [17] it was 0.733 µM (active). Also, the IC50 was 3.5 µM (active) in assay [8] and > 80 µM (inactive) in assay [13]. Moreover, the results for the concentration at half-maximal activity (AC50) in the assay with HEK293 and with INS1 were 2.45 µM (active) and 0.394 µM (active), respectively.

The values are drawn from ChEMBL document CHEMBL1201862, “PubChem BioAssay data set” (2004).
